Source: patent US20090029983A1, “NOVEL HETEROCYCLIC COMPOUNDS HAVING ANTI-HBV ACTIVITY” (priority 2005, published 2009)

Test system: HBV
Test: HBV screening assay (viral DNA in baculovirus-HBV transduced HepG2 cells)
Format: cell-based
Conditions: Hepatitis B virus, HepG2, 72 h, read-out: EC50 (antiviral activity), HBV-transduced HepG2 cells, three days with compound, viral DNA by ELISA
Procedure: HepG2 cells were transduced using a baculovirus to deliver the HBV genome essentially as previously described (Delaney et al. in Hepatology 1998; 28: 1134-1146). Transduced cells were cultured in supplemented EMEM media with 10% fetal bovine serum in a 5% CO2 incubator at 37° C. for three days in the presence of test compounds. The cells were lysed in a buffer containing 0.5% NP-40 and […] proteinase K. A solid-phase hybridization was performed to capture the viral DNA and to label the target DNA with Digoxigenin-labeled DNA probes. The viral DNA was detected by ELISA, using horseradish peroxidase-conjugated anti-digoxigenin antibodies.
The EC50 values were determined using ExcelFit software from the inhibition values of a titration curve for each compound. For CC50 determinations, the same titration of compounds was co-cultured with non-transduced HepG2 for three days under the conditions described above. The Promega CellTiter 96 Aqueous One Solution Cell Proliferation Assay was used to measure cell proliferation/viability. The CC50 values were determined using ExcelFit software from the inhibition values of the titration curve for each compound.

Row | Structure (SMILES) | EC50 [µM]
1 | CC(=O)N1CCc2nc3sc(C(N)=O)c(N)c3c(-c3cccs3)c2C1 [Compound 34, 6-Acetyl-3-amino-4-thiophen-2-yl-5,6,7,8-tetrahydro-thieno[2,3-b][1,6]naphthyridine-2-carboxylic acid amide] | > 10
2 | CCOC1CCc2c1nc1sc(C(N)=O)c(N)c1c2-c1cccs1 (stereo not drawn) [Compound 35, 3-Amino-7-ethoxy-4-thiophen-2-yl-6,7-dihydro-5H-cyclopenta[b]thieno[3,2-e]pyridine-2-carboxylic acid amide] | < 1
3 | NC(=O)c1sc2nc3c(c(-c4cccs4)c2c1N)CCC3CC(=O)O (stereo not drawn) [Compound 36, 3-Amino-7-carboxymethyl-4-thiophen-2-yl-6,7-dihydro-5H-cyclopenta[b]thieno[3,2-e]pyridine-2-carboxylic acid amide] | > 10
4 | CC1CCc2c1nc1sc(C(N)=O)c(N)c1c2-c1cccs1 (stereo not drawn) [Compound 37, 3-Amino-7-methyl-4-thiophen-2-yl-6,7-dihydro-5H-cyclopenta[b]thieno[3,2-e]pyridine-2-carboxylic acid amide] | < 1
5 | NC(=O)c1sc2nc3c(c(-c4cccs4)c2c1N)CCC3CC(=O)N1CCOCC1 (stereo not drawn) [Compound 38, 3-Amino-7-(2-morpholin-4-yl-2-oxo-ethyl)-4-thiophen-2-yl-6,7-dihydro-5H-cyclopenta[b]thieno[3,2-e]pyridine-2-carboxylic acid amide] | > 10
6 | NC(=O)c1sc2nc3c(c(-c4cccs4)c2c1N)CCC3CC(=O)NCC(O)c1ccccc1 (stereo not drawn) [Compound 39, 3-Amino-7-[(2-hydroxy-2-phenyl-ethylcarbamoyl)-methyl]-4-thiophen-2-yl-6,7-dihydro-5H-cyclopenta[b]thieno[3,2-e]pyridine-2-carboxylic acid amide] | > 10
7 | COC(=O)CC1CCc2c1nc1sc(C(N)=O)c(N)c1c2-c1cccs1 (stereo not drawn) [Compound 40, 3-Amino-7-carbomethoxymethyl-4-thiophen-2-yl-6,7-dihydro-5H-cyclopenta[b]thieno[3,2-e]pyridine-2-carboxylic acid amide] | > 10
8 | CCOC(=O)CC1CCc2c1nc1sc(C(N)=O)c(N)c1c2-c1cccs1 (stereo not drawn) [Compound 41, 3-Amino-7-carbethoxymethyl-4-thiophen-2-yl-6,7-dihydro-5H-cyclopenta[b]thieno[3,2-e]pyridine-2-carboxylic acid amide] | > 10
9 | CNC(=O)CC1CCc2c1nc1sc(C(N)=O)c(N)c1c2-c1cccs1 (stereo not drawn) [Compound 42, 3-Amino-7-methylcarbamoylmethyl-4-thiophen-2-yl-6,7-dihydro-5H-cyclopenta[b]thieno[3,2-e]pyridine-2-carboxylic acid amide] | 1 to 10
10 | Cc1ccc(CNC(=O)CC2CCc3c2nc2sc(C(N)=O)c(N)c2c3-c2cccs2)o1 (stereo not drawn) [Compound 43, 3-Amino-7-{[(5-methyl-furan-2-ylmethyl)-carbamoyl]-methyl}-4-thiophen-2-yl-6,7-dihydro-5H-cyclopenta[b]thieno[3,2-e]pyridine-2-carboxylic acid amide] | > 10
11 | COc1ccccc1CNC(=O)CC1CCc2c1nc1sc(C(N)=O)c(N)c1c2-c1cccs1 (stereo not drawn) [Compound 44, 3-Amino-7-[(2-methoxy-benzylcarbamoyl)-methyl]-4-thiophen-2-yl-6,7-dihydro-5H-cyclopenta[b]thieno[3,2-e]pyridine-2-carboxylic acid amide] | > 10
12 | NC(=O)c1sc2nc3c(c(-c4cccs4)c2c1N)CCC3CC(=O)NCc1ccccn1 (stereo not drawn) [Compound 45, 3-Amino-7-{[(pyridin-2-ylmethyl)-carbamoyl]-methyl}-4-thiophen-2-yl-6,7-dihydro-5H-cyclopenta[b]thieno[3,2-e]pyridine-2-carboxylic acid amide] | > 10
13 | NC(=O)c1sc2nc3c(c(-c4cccs4)c2c1N)CCC3CC(=O)NCCc1ccccn1 (stereo not drawn) [Compound 46, 3-Amino-7-[(2-pyridin-2-yl-ethylcarbamoyl)-methyl]-4-thiophen-2-yl-6,7-dihydro-5H-cyclopenta[b]thieno[3,2-e]pyridine-2-carboxylic acid amide] | > 10
14 | NC(=O)c1sc2nc3c(c(-c4cccs4)c2c1N)CCC3CC(=O)NCc1ccc(C(F)(F)F)cc1 (stereo not drawn) [Compound 47, 3-Amino-4-thiophen-2-yl-7-[(4-trifluoromethyl-benzylcarbamoyl)-methyl]-6,7-dihydro-5H-cyclopenta[b]thieno[3,2-e]pyridine-2-carboxylic acid amide] | > 10
15 | CC(C)CCNC(=O)CC1CCc2c1nc1sc(C(N)=O)c(N)c1c2-c1cccs1 (stereo not drawn) [Compound 48, 3-Amino-7-[(3-methyl-butylcarbamoyl)-methyl]-4-thiophen-2-yl-6,7-dihydro-5H-cyclopenta[b]thieno[3,2-e]pyridine-2-carboxylic acid amide] | > 10
16 | CN(C)C(=O)CC1CCc2c1nc1sc(C(N)=O)c(N)c1c2-c1cccs1 (stereo not drawn) [Compound 49, 3-Amino-7-dimethylcarbamoylmethyl-4-thiophen-2-yl-6,7-dihydro-5H-cyclopenta[b]thieno[3,2-e]pyridine-2-carboxylic acid amide] | > 10
17 | NC(=O)c1sc2nc3c(c(-c4cccs4)c2c1N)CCC3CC(=O)NC1CCC1 (stereo not drawn) [Compound 50, 3-Amino-7-cyclobutylcarbamoylmethyl-4-thiophen-2-yl-6,7-dihydro-5H-cyclopenta[b]thieno[3,2-e]pyridine-2-carboxylic acid amide] | > 10
18 | NC(=O)c1sc2nc3c(c(-c4cccs4)c2c1N)CCC3CC(=O)NC1CCCCC1 (stereo not drawn) [Compound 51, 3-Amino-7-cyclohexylcarbamoylmethyl-4-thiophen-2-yl-6,7-dihydro-5H-cyclopenta[b]thieno[3,2-e]pyridine-2-carboxylic acid amide] | > 10
19 | NC(=O)c1sc2nc3c(c(-c4cccs4)c2c1N)CCC3CC(=O)N1CCC(O)CC1 (stereo not drawn) [Compound 52, 3-Amino-7-[2-(4-hydroxy-piperidin-1-yl)-2-oxo-ethyl]-4-thiophen-2-yl-6,7-dihydro-5H-cyclopenta[b]thieno[3,2-e]pyridine-2-carboxylic acid amide] | > 10
20 | NC(=O)c1sc2nc3c(c(-c4cccs4)c2c1N)CCC3CC(=O)N1CCN(c2ccccn2)CC1 (stereo not drawn) [Compound 53, 3-Amino-7-[2-oxo-2-(4-pyridin-2-yl-piperazin-1-yl)-ethyl]-4-thiophen-2-yl-6,7-dihydro-5H-cyclopenta[b]thieno[3,2-e]pyridine-2-carboxylic acid amide] | > 10
21 | CCOC(=O)N1CCC(NC(=O)CC2CCc3c2nc2sc(C(N)=O)c(N)c2c3-c2cccs2)CC1 (stereo not drawn) [Compound 54, 4-[2-(3-Amino-2-carbamoyl-4-thiophen-2-yl-6,7-dihydro-5H-cyclopenta[b]thiano[3,2-e]pyridin-7-yl)-acetylamino]-piperidine-1-carboxylic acid ethyl ester] | > 10
22 | CN1CCCC1CCNC(=O)CC1CCc2c1nc1sc(C(N)=O)c(N)c1c2-c1cccs1 (stereo not drawn) [Compound 55, 3-Amino-7-{[2-(1-methyl-pyrrolidin-2-yl)-ethylcarbamoyl]-methyl}-4-thiophen-2-yl-6,7-dihydro-5H-cyclopenta[b]thieno[3,2-e]pyridine-2-carboxylic acid amide] | > 10
23 | CCOC(=O)C1CCN(C(=O)CC2CCc3c2nc2sc(C(N)=O)c(N)c2c3-c2cccs2)CC1 (stereo not drawn) [Compound 56, 1-[2-(3-Amino-2-carbamoyl-4-thiophen-2-yl-6,7-dihydro-5H-cyclopenta[b]thieno[3,2-e]pyridin-7-yl)-acetyl]-piperidine-4-carboxylic acid ethyl ester] | > 10
24 | NC(=O)c1sc2nc3c(c(-c4cccs4)c2c1N)CCC3CC(=O)NCCCN1CCOCC1 (stereo not drawn) [Compound 57, 3-Amino-7-[(3-morpholin-4-yl-propylcarbamoyl)-methyl]-4-thiophen-2-yl-6,7-dihydro-5H-cyclopenta[b]thiano[3,2-e]pyridine-2-carboxylic acid amide] | > 10
25 | CC1CCCCN1CCCNC(=O)CC1CCc2c1nc1sc(C(N)=O)c(N)c1c2-c1cccs1 (stereo not drawn) [Compound 58, 3-Amino-7-{[3-(2-methyl-piperidin-1-yl)-propylcarbamoyl]-methyl}-4-thiophen-2-yl-6,7-dihydro-5H-cyclopenta[b]thieno[3,2-e]pyridine-2-carboxylic acid amide] | > 10
26 | CCCCCCC1CCc2c1nc1sc(C(N)=O)c(N)c1c2-c1cccs1 (stereo not drawn) [Compound 59, 3-Amino-7-hexyl-4-thiophen-2-6,7-dihydro-5H-cyclopenta[b]thieno[3,2-e]pyridine-2-carboxylic acid amide] | > 10
27 | CCCCCCCC1CCc2c1nc1sc(C(N)=O)c(N)c1c2-c1cccs1 (stereo not drawn) [Compound 60, 3-Amino-7-heptyl-4-thiophen-2-yl-6,7-dihydro-5H-cyclopenta[b]thieno[3,2-e]pyridine-2-carboxylic acid amide] | > 10
28 | NC(=O)c1sc2nc3c(c(-c4cccs4)c2c1N)CCC3C1CCCC1 (stereo not drawn) [Compound 61, 3-Amino-7-cyclopentyl-4-thiophen-2-yl-6,7-dihydro-5H-cyclopenta[b]thieno[3,2-e]pyridine-2-carboxylic acid amide] | 1 to 10
29 | N#CCCC1CCCc2c1nc1sc(C(N)=O)c(N)c1c2-c1cccs1 (stereo not drawn) [Compound 62, 3-Amino-8-(2-cyano-ethyl)-4-thiophen-2-yl-5,6,7,8-tetrahydro-thieno[2,3-b]quinoline-2-carboxylic acid amide] | > 10
30 | CC(C)CC1CCCc2c1nc1sc(C(N)=O)c(N)c1c2-c1cccs1 (stereo not drawn) [Compound 63, 3-Amino-8-isobutyl-4-thiophen-2-yl-5,6,7,8-tetrahydro-thieno[2,3-b]quinoline-2-carboxylic acid amide] | 1 to 10
